Measurements published in ChEMBL document CHEMBL1201862, “PubChem BioAssay data set” (2004).
Several values for one entry are separate records, joined by “and”; a condition that tells them apart may be missing. Identical values can stand only once.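 1) Cells in 96-well plates. 2) Compound, 48 h, 5 concentrations. 3) Linear interpolation between surrounding doses. 4) Unreached endpoint = highest concentration. The concentration for 50% growth inhibition is given as GI50.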 Activity calls are given as the source filed them. Rule as the data show it: active = GI50 up to about 1.1 µM and inactive = higher.

Tests used:
Test in all cases: growth of human tumour cells (NCI), 48 h
[1] = tested on: NCI-H23
[2] = tested on: RPMI-8226
[3] = tested on: SF-539
[4] = tested on: KM12
[5] = tested on: MOLT-4
[6] = tested on: SNB-75
[7] = tested on: SK-MEL-28
[8] = tested on: HT-29
[9] = tested on: SK-OV-3
[10] = tested on: NCI-H460
[11] = tested on: SF-268
[12] = tested on: M19-MEL
[13] = tested on: K562
[14] = tested on: COLO 205
[15] = tested on: NCI-H522
[16] = tested on: DMS-114
[17] = tested on: OVCAR-4
[18] = tested on: SK-MEL-2
[19] = tested on: LXFL 529
[20] = tested on: KM-20L2
[21] = tested on: ACHN
[22] = tested on: UACC-62
[23] = tested on: SNB-78
[24] = tested on: CCRF-CEM
[25] = tested on: HL-60
[26] = tested on: SR
[27] = tested on: HOP-92
[28] = tested on: A549
[29] = tested on: HCT-15
[30] = tested on: TK-10
[31] = tested on: EKVX
[32] = tested on: HCC 2998
[33] = tested on: HOP-18
[34] = tested on: OVCAR-3
[35] = tested on: HOP-62
[36] = tested on: DLD-1
[37] = tested on: SN12C
[38] = tested on: HCT-116
[39] = tested on: CAKI-1
[40] = tested on: M14
[41] = tested on: SW-620
[42] = tested on: SK-MEL-5
[43] = tested on: SF-295
[44] = tested on: UACC-257
[45] = tested on: OVCAR-5
[46] = tested on: OVCAR-8
[47] = tested on: SNB-19
[48] = tested on: 786-0
[49] = tested on: UO-31
[50] = tested on: U-251
[51] = tested on: DMS-273
[52] = tested on: IGROV-1
[53] = tested on: NCI-H226

Measured: GI50

CCCSc1nc(-c2ccc(OC)cc2)c(C#N)c(=O)n1C1OC(COC(C)=O)C(OC(C)=O)C(OC(C)=O)C1OC(C)=O (stereo not drawn)
inactive: [1] > 100 µM | [2] > 100 µM | [3] > 100 µM | [4] > 100 µM | [5] > 100 µM | [6] 42.3 µM | [7] > 100 µM | [8] > 100 µM and 65.9 µM | [9] > 100 µM | [10] > 100 µM | [11] > 100 µM | [12] > 100 µM | [13] > 100 µM | [14] > 100 µM | [15] > 100 µM | [16] > 100 µM | [17] > 100 µM | [18] > 100 µM | [19] > 100 µM | [20] > 100 µM and 54.6 µM | [21] > 100 µM | [22] > 100 µM | [23] 99.3 µM | [24] > 100 µM | [25] > 100 µM | [26] > 100 µM

C=CCc1cc(OC)c2c(c1)C(O)CC(c1ccc(OC)c(OC)c1)O2 (stereo not drawn)
> 100 µM: [29]
inactive: [1] > 100 µM | [27] 20.6 µM | [28] > 100 µM | [3] 78.2 µM | [30] > 100 µM | [31] > 100 µM | [4] > 100 µM | [32] > 100 µM | [33] > 100 µM | [5] 38.6 µM | [34] > 100 µM | [35] > 100 µM | [6] 89.5 µM | [36] > 100 µM | [7] > 100 µM | [8] > 100 µM | [9] > 100 µM | [10] > 100 µM | [11] > 100 µM | [12] > 100 µM | [37] > 100 µM | [38] > 100 µM | [13] 16.3 µM | [14] > 100 µM | [15] > 100 µM | [39] 73.3 µM | [40] > 100 µM | [41] > 100 µM | [42] 58.3 µM | [16] 59.8 µM | [43] > 100 µM | [44] 72.4 µM | [17] > 100 µM | [18] > 100 µM | [45] > 100 µM | [46] > 100 µM | [19] > 100 µM | [20] > 100 µM | [21] > 100 µM | [47] > 100 µM | [22] > 100 µM | [23] > 100 µM | [48] > 100 µM | [49] > 100 µM | [24] > 100 µM | [25] 24.9 µM | [26] > 100 µM | [50] > 100 µM | [51] > 100 µM | [52] > 100 µM | [53] > 100 µM
